Source: paper PMC3922309, “Differential roles of tryptophan residues in conformational stability of Porphyromonas gingivalis HmuY hemophore” (BMC Biochemistry, 2014)

Tests used:
HmuY [1] = target: T1, HmuY (Porphyromonas gingivalis, UniProt A2BCY8); experiment: heme titration of apoprotein (UV-visible / Trp fluorescence quenching), one-site model; assay type: binding
T1 construct: polypeptide lacking the first 25 residues, plasmid pHmuY11, expressed in Escherichia coli ER2566, purified from soluble lysate
T1 sequence (A2BCY8 entry or part of it): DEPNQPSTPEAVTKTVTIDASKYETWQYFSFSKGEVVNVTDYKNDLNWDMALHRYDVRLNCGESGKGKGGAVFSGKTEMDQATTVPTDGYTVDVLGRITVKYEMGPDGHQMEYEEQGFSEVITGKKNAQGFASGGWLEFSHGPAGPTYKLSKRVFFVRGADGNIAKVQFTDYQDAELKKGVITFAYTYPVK

HmuY [2] = target: HmuY (Porphyromonas gingivalis, UniProt A2BCY8, W73Y); experiment: biochemical
HmuY (Porphyromonas gingivalis, UniProt A2BCY8, W73Y), sequence (A2BCY8 26-216 W73Y): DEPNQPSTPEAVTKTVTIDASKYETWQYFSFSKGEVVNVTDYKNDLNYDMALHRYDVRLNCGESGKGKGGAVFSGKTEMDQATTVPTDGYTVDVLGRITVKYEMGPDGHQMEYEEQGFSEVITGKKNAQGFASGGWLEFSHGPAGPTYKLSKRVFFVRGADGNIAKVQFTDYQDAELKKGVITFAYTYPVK

HmuY [3] = target: HmuY (Porphyromonas gingivalis, UniProt A2BCY8, W51Y); experiment: biochemical
HmuY (Porphyromonas gingivalis, UniProt A2BCY8, W51Y), sequence (A2BCY8 26-216 W51Y): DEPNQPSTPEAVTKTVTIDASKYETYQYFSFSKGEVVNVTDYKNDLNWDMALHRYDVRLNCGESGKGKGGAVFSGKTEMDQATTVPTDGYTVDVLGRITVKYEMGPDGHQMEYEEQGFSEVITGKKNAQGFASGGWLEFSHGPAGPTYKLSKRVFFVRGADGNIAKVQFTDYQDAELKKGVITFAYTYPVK

HmuY [4] = target: HmuY (Porphyromonas gingivalis, UniProt A2BCY8, W73A); experiment: biochemical
HmuY (Porphyromonas gingivalis, UniProt A2BCY8, W73A), sequence (A2BCY8 26-216 W73A): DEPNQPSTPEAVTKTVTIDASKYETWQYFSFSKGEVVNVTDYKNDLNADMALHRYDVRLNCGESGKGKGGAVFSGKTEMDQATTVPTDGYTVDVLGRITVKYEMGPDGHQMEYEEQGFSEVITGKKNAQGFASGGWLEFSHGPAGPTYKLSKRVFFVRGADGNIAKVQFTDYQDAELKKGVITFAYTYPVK

HmuY [5] = target: HmuY (Porphyromonas gingivalis, UniProt A2BCY8, W161Y); experiment: biochemical
HmuY (Porphyromonas gingivalis, UniProt A2BCY8, W161Y), sequence (A2BCY8 26-216 W161Y): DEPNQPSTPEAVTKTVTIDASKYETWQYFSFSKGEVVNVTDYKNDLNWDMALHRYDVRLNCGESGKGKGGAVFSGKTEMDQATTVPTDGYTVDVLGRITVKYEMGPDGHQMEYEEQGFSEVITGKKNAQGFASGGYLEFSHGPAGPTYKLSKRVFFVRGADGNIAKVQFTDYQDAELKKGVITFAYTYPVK

HmuY [6] = target: HmuY (Porphyromonas gingivalis, UniProt A2BCY8, W51A); experiment: biochemical
HmuY (Porphyromonas gingivalis, UniProt A2BCY8, W51A), sequence (A2BCY8 26-216 W51A): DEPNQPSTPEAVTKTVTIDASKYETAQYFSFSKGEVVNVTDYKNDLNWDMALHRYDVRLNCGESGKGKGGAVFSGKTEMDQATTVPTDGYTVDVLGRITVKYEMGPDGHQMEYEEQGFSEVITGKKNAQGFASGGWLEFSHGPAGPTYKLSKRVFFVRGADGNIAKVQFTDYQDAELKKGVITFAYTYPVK

HmuY [7] = target: HmuY (Porphyromonas gingivalis, UniProt A2BCY8, W161A); experiment: biochemical
HmuY (Porphyromonas gingivalis, UniProt A2BCY8, W161A), sequence (A2BCY8 26-216 W161A): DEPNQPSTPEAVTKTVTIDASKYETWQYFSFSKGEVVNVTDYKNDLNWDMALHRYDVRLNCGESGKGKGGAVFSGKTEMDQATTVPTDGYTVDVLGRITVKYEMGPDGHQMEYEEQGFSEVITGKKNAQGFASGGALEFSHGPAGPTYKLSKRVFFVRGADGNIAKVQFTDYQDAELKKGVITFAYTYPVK

`C=CC1=C(C)C2=Cc3c(C=C)c(C)c4[n]3[Fe]([Cl])[n]3c(c(C)c(CCC(=O)O)c3=CC3=NC(=C4)C(C)=C3CCC(=O)O)=CC1=N2` [heme] showed a Kd (HmuY [1]) of 296 ± 12 nM, a Kd (HmuY [2]) of 238 ± 12 nM and a Kd (HmuY [3]) of 216 ± 7 nM. The Kd (HmuY [4]) was 229 ± 8 nM, the Kd (HmuY [5]) was 235 ± 11 nM and the Kd (HmuY [6]) was 303 ± 13 nM. It also gave a Kd (HmuY [7]) of 323 ± 16 nM.
